As a reminder, the IC50 is the concentration at which inhibition is half-maximal.

Drawing on patent US7507734B2, “Pyridazinone derivatives” (Aventis Pharma S.A., priority 2004, dated 2009), this text covers IC50 for 5 compounds.

The structures appear in SMILES notation.

In the experiment the target is CDK2/Cyclin E kinase (Homo sapiens, UniProt P24941). The experiment can be described thus: CDK2/Cyclin E Flashplate Assay: 96-well format. Conditions: streptavidin-coated flashplate, biotinylated-Rb peptide substrate 10 μM, 33PγATP/ATP 1 μM, CDK2/Cyclin E 20 nM, 30 minute at 30° C., 1% DMSO. It is filed as biochemical. The procedure: Functional Measurements for Determination of IC50-Values
CDK2/Cyclin E Flashplate Assay: 96-Well Format
A 96-well streptavidin-coated flashplate is used to assay potency of compounds according formula (I) against CDK2/Cyclin E kinase. To carry out the assay, biotinylated-Rb peptide substrate (Biotin-[…]-OH) is solubilized at 1 mM in kinase buffer (Hepes 50 mM, NaCI 1 mM, MgCI2 5mM pH 7.5) as a stock solution conserved at −20° C. in aliquots of 110 μl. The day of the experiment, an aliquot of this solution is thawed and diluted to 14.3 μM in kinase buffer, containing 1 mM dithithreitol (DTT) added in the buffer extemporarily.
70 μl of this solution is added in each well of the flashplate in order to achieve a final concentration of 10 μM (100 μl reactionnal volume). Serial dilutions of inhibitors are prepared in DMSO from 10 mM stock solutions in order to achieve 1000 μM, 333.3 μM, 111.1 μM, 37.03 μM, 12.35 μM, 4.11 μM and 1.37 μM and all rediluted in kinase buffer+DTT in order to achieve 100 μM, 33.3 μM, 11.1 μM, 3.7 μM, 1.24 μM, 0.41 μM and 0.14 μM in DMSO 10% buffer (vol/vol). 10 μl of each of these solutions (or 10 μl of buffer+DTT for controls) are transferred to the testplate wells in order to achieve 10 μM, 3.33 μM, 1.11 μM, 0.37 μM, 0.12 μM, 0.04 μM and 0.01 μM as final concentrations, 1% DMSO (vol/vol). In each well, 10 μl of a solution of a mix of ^33PγATP/ATP are added in order to achieve 1 μM final concentration and a total of 1 μCi. The kinase reaction is initiated by addition of 10 μl of a solution at 200 nM of CDK2/Cyclin E in kinase buffer+DTT (or buffer+DTT for blanks) in order to achieve 20 nM final concentration. After addition of each reagent, the test-plate is shaken. The plates are incubated 30 minute at 30° C. with a shaking at 650 rpm. At the end of the incubation, the plates are washed 3 times with 300 μl of PBS (without calcium and magnesium) per well. The incorporation of ^33P to the peptide is measured by scintillation counting.
Regarding `O=c1[nH]nc(-c2ccc(O)cc2)cc1-c1cc2ccccc2[nH]1` [Example 2, 6-(4-Hydroxy-phenyl)-4-(1H-indol-2-yl)-2H-pyridazin-3-one], the IC50 is 0.033 µM.

In the case of `Cc1ccc2[nH]c(-c3cc(-c4ccncc4)n[nH]c3=O)cc2c1` [Example 14, 4-(5-Methyl-1H-indol-2-yl)-6-pyridin-4-yl-2H-pyridazin-3-one], inhibition was half-maximal at 0.026 µM (IC50).

As for `CCN(CC)CCOc1ccc2cc(-c3cc(-c4ccncc4)n[nH]c3=O)[nH]c2c1` [Example 20, 4-[6-(2-Diethylamino-ethoxy)-1H-indol-2-yl]-6-pyridin-4-yl-2H-pyridazin-3-one], the 50% inhibitory concentration (IC50) came out at 0.02 µM.

`O=c1[nH]nc(-c2ccncc2)cc1-c1cc2ccc(OCc3ccccc3)cc2[nH]1` [Example 23, 4-(6-Benzyloxy-1H-indol-2-yl)-6-pyridin-4-yl-2H-pyridazin-3-one] showed an IC50 of 0.048 µM.

`CN(C)CCCOc1ccc2[nH]c(-c3cc(-c4ccncc4)n[nH]c3=O)cc2c1` [Example 30, 4-[5-(3-Dimethylamino-propoxy)-1H-indol-2-yl]-6-pyridin-4-yl-2H-pyridazin-3-one]: the IC50 is 0.035 µM.
